Here are results for one compound from PMC6470795 (Molecules, 2019).

Usually IC50 stands for the concentration that inhibits the measured activity by half. A word on the melting point: it is the temperature of the solid-liquid transition.

Read-outs that look alike come from different tables or passages of the source.

For series [1], the system named is hepatic carcinoma 97H cells. In words: Cell cycle analysis by flow cytometry (PI staining). The format is cell-based, human. The procedure: 97H cells were seeded in 6-well plates (3 × 10^5 cells/well) and incubated in the presence or absence of compound 31e at the indicated concentrations for 24 h. Then, cells were harvested by centrifugation and fixed in 70% ice-cold ethanol overnight. The ethanol was removed the next day, and then the cells were resuspended in the ice-cold PBS and treated with RNAse A (Keygen Biotech, Nanjing, China) at 37 °C for 30 min, followed by incubation with the DNA staining solution propidium iodide (PI) (Keygen Biotech, Nanjing, China) at 4 °C for 30 min. About 10,000 events were detected by flow cytometry (Epics XL, Beckman Coulter, Fullerton, CA, USA) at 488 nm. The data regarding the number of cells in different phases of the cell cycle were analyzed by EXPO32 ADC analysis software (Beckman Coulter, Fullerton, CA, USA).
Figure 3 Effect of 31e on cell cycle progression. (A) 97H cells (3 × 10^5 cells/sample) were treated with increasing concentrations of 31e for 24 h, cells were harvested, fixed with 70% ethanol, and stained with propidium iodide (PI). The cellular DNA content was then determined by flow cytometry analysis. (B) Quantitative analysis of the percentage of cells in each cell cycle phase was analyzed by EXPO32 ADC analysis software.
For orientation: Flow cytometry measures light scatter and fluorescence of single cells or particles in a stream.

Series [2] has as its system LO2 (human normal liver cells). Put plainly: MTT assay, LO2 normal cells. The format is cell-based. Particulars: LO2 normal cells, MTT, 48 h, read-out: IC50 LO2. A general note: Tetrazolium assays rely on reduction of a dye to a coloured formazan, in cell work by metabolically active cells.
Excerpt: (§3) The cell lines, 97H (human liver cancer cell), Pc9 (human non-small cell lung cancer), HELA (human epithelial cervical cancer cell line), SJSA1 (human osteosarcoma cells), LO2 (human normal liver cells), and HLF (human embryonic lung fibroblast), used in this study were purchased from the Guangzhou ginny ou Biotechnology Co. Ltd. (Guangzhou, China). Cell lines were cultivated in Dulbecco’s Modified Eagle Medium (DMEM) containing 10% (v/v) heat-inactivated fetal bovine serum (FBS), 100 units/mL penicillin, and 100 μg/mL streptomycin.
(§4) For the cytotoxicity assay, the cells grown in the logarithmic phase were seeded into 96-well plates (5 × 10^3 cells/well) for 24 h, and then exposed to different concentrations of the test compounds for 48 h. After the attached cells had been incubated with 5 mg/mL MTT (Sigma, St. Louis, MO, USA) for another 4 h, the suspension was discarded and subsequently the dark blue crystals (formazan) were solubilized in dimethyl sulfoxide (DMSO). Then, the absorbance was measured at 570 nm using a multifunction microplate reader (Molecular Devices, Flex Station 3) (Thermo Fisher Scientific, San Jose, CA, USA), and each experiment was performed at least in triplicate.
The target of another series is T1, c-Met enzyme (Homo sapiens, UniProt P08581).
T1 construct: purchased Invitrogen
T1 sequence (P08581 25-1390): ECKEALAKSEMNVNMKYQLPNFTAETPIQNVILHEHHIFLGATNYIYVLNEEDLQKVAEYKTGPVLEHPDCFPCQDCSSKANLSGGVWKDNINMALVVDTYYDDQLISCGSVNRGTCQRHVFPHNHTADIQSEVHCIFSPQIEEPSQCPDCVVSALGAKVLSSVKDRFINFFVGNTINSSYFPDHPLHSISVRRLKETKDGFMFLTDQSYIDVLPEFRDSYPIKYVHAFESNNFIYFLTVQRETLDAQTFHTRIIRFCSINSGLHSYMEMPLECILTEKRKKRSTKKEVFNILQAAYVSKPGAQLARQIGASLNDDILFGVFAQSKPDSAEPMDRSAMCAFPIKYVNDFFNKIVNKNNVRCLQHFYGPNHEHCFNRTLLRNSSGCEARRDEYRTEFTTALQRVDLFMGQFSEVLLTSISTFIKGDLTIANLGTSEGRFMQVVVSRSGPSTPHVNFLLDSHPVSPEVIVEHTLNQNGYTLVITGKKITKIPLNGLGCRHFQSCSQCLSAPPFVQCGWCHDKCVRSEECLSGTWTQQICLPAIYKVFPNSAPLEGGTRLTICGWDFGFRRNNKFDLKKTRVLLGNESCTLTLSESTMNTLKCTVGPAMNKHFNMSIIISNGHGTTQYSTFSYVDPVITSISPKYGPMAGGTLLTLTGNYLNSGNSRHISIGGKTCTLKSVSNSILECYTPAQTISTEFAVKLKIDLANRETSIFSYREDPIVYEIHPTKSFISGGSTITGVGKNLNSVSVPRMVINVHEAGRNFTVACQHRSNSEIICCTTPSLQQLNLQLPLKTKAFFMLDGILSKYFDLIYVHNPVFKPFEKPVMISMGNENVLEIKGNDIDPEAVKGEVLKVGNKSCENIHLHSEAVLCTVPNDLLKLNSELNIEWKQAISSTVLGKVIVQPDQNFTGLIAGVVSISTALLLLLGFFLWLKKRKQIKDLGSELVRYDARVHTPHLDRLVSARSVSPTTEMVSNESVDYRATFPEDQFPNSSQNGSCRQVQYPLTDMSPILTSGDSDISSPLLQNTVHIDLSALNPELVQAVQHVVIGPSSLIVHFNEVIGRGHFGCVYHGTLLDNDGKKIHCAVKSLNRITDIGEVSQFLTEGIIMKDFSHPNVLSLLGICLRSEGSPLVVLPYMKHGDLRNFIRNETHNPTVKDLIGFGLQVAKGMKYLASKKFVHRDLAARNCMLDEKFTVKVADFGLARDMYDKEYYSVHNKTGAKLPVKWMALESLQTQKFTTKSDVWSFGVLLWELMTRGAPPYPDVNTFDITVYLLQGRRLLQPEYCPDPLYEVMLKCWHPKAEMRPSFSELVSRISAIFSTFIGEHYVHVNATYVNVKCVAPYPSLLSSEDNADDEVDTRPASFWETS
Put plainly: Kinase inhibition assay. The format is biochemical.

Series [3] concerns hepatic carcinoma 97H cells. In words: MTT antiproliferative assay, 97H cells. The conditions noted are these: Homo sapiens, 97H cells, MTT, 48 h. The format is cell-based, human.
Excerpt: as §3, §4
Series [4] deals with Hela (human epithelial cervical cancer cells). In words: MTT antiproliferative assay, Hela cells. Particulars: Hela cells, MTT, 48 h, read-out: IC50 Hela. It counts as cell-based.
Excerpt: as §3, §4
The next series deals with c-Met phosphorylation. Put plainly: Western blot, phosphorylation of c-Met in 97H cells. The format is cell-based, human. As to the method: (§1) 97H cells seeded in 60-mm dishes at a density of 5 × 10^5 cells/well were incubated with or without compound 31e at the indicated concentrations for 4 h. After incubation, the cells were washed twice with ice-cold PBS, and then lysed in RIPA lysis buffer (Radio Immunoprecipitation Assay) containing 150 mM NaCl, 50 mM Tris (pH 7.4), 1% (w/v) sodium deoxycholate, 1% (v/v) Triton X-100, 0.1% (w/v) SDS, and 1 mM EDTA (ethylenediaminetetraacetic acid) (Beyotime, Shanghai, China). The lysates were incubated at 0 °C for 30 min, and vortexed every 10 min intermittently, then the total proteins were harvested by centrifuging at 12,500 g for 15 min. The protein concentrations were determined by a BCA (bicinchoninic acid) Protein Assay Kit (Thermo Fisher Scientific, Rockford, IL, USA), and then the protein extracts were reconstituted in loading buffer containing 62 mM Tris-HCl, 2% SDS (sodium dodecyl sulfate), 10% glycerol, and 5% β-mercaptoethanol (Beyotime, Shanghai, China), and boiled at 100 °C for 3 min. An equal amount of the proteins (40 μg) was separated by 8%–12% sodium dodecyl sulphate-polyacrylamide gel electrophoresis (SDS-PAGE) and were transferred to nitrocellulose membranes (Amersham Biosciences, Little Chalfont, Buckinghamshire, UK). After blocking with 5% non-fat dried milk in TBS containing 1% Tween-20 for 90 min at room temperature, the membranes were incubated overnight with specific primary antibodies (Abcam, London, England) at 4 °C. After three washes in TBST, the membranes were incubated with the appropriate HRP-conjugated (Horseradish Peroxidase-conjugated) secondary antibodies at room temperature for 2 h. The blots were developed with enhanced chemiluminescence (Pierce, Rockford, IL, USA) and detected by an LAS4000 imager (GE Healthcare, Waukesha, WI, USA).
(§2) Figure 5 Compound 31e inhibits c-Met phosphorylation and downstream signaling in cancer cell lines. Cells treated with compound 31e for 1 h or 2 h were then lysed and subjected to Western blot analysis.
For orientation: A western blot detects proteins with antibodies after separation by electrophoresis.

For series [5], the system named is HLF (human embryonic lung fibroblast cells). Put plainly: MTT assay, HLF normal cells. The conditions noted are these: HLF normal cells, MTT, 48 h, read-out: IC50 HLF. The format is cell-based.
Excerpt: as §3, §4
The next series concerns Akt phosphorylation. In words: Western blot, phosphorylation of Akt in 97H cells. The format is cell-based, human. As to the method:
as §1, §2

In series [6] the test system is hepatic carcinoma 97H cells. Put plainly: Anti-cell-migration study. The conditions noted are these: 36 h. It counts as cell-based, human. As to the method:
97H cells were plated in a 6-well culture dish at 5 × 10^4 cells/dish and grown for 24 h, and the non-migrated cells were scraped off the upper surface of the membrane with a 10 μL pipette. The medium was then replaced with 10% serum DMEM medium and treated with compound 31e at the indicated concentrations for another 36 h. After washing with phosphate buffer solution (PBS), the cell images were immediately detected by a Zeiss LSM 570 laser scanning confocal microscope (Carl Zeiss, Jena, Germany).
Figure 4 Effect of 31e on the migration of hepatic carcinoma 97H cells. Hepatic carcinoma 97H cells (50 × 10^4 cells) suspended in free serum Dulbecco’s Modified Eagle Medium (DMEM) containing 31e for 36 h were photographed under a phase contrast microscopy (magnification: 4 × objective). All results were expressed as the mean ± SD of at least three independent experiments.

Series [7] has as its system Pc9 (human non-small cell lung cancer cells). In words: MTT antiproliferative assay, Pc9 cells. It counts as cell-based. Particulars: PC-9, Pc9 cells, MTT, 48 h, read-out: IC50 Pc9.
Excerpt: as §3, §4
In series [8] the test system is SJSA1 (human osteosarcoma cells). In words: MTT antiproliferative assay, SJSA1 cells. Particulars: SJSA-1, SJSA1 cells, MTT, 48 h, read-out: IC50 SJSA1. The format is cell-based.
Excerpt: as §3, §4
The mark [9] stands for this setting: same concentration, 2 h versus 1 h.

Description for c-Met enzyme: The c-Met enzymes and the Z’-LYTE Kinase Kit were purchased from Invitrogen. The tested compounds were used in concentrations of 0.001 to 10 mM. Briefly, 1 μL of an inhibitor or 5% DMSO, 2 μL of enzyme, and 2 μL of substrate/ATP mix were added to a 384-well low volume plate L and incubated at room temperature for 60 min. Then, 5 μL of ADP-Glo™ Reagent was added, and the mixture was incubated at room temperature for 40 min. Finally, 10 μL of Kinase Detection Reagent was added, and the mixture was incubated at room temperature for 30 min. The plate was measured on a multifunction microplate reader (Molecular Devices, Flex Station 3), and the luminescence was recorded (integration time 0.5–1 s). Curve fitting and data presentations were performed using Graph Pad Prism version 5.0 (GraphPad Inc., La Jolla, CA, USA). Every experiment was repeated at least three times.

`CC(c1cccc(-c2ncc(OCC3CCN(C)CC3)cn2)c1)n1cc(-c2cccc(C#N)c2)cnc1=O` (stereo not drawn) [Compound 31e, 5-(3-cyanophenyl)-1-(1-(3-(5-((1-methylpiperidin-4-yl)methoxy)pyrimidin-2-yl)phenyl)ethyl)pyrimidin-2(1H)-one] came in with a melting point of 98.2 to 99.9 °C. In [1] (10 nM, 24 h (vehicle DMSO 70.42%)), the “population of cells in the G1 phase” value stood at 83.84%. In addition, in series [1] (100 nM, 24 h), the “population of cells in the G1 phase” value came out at 90.88% and the “population of cells in the G2/M phase” value was determined as 5.78%. Besides, the half-maximal inhibitory concentration (IC50) in series [2] is greater than 50 µM. This compound also gave a half-maximal inhibitory concentration (IC50) on c-Met enzyme of 32 ± 60 nM. Also, the IC50 in series [3] (read-out: IC50 of Against 97H cells) came to 26 nM. Also, the IC50 in series [3] (read-out: IC50 value, 97H cells) is 26 nM. Moreover, the IC50 in [4] is greater than 50 µM. For the same compound, the “phosphorylation of c-Met” value with c-Met phosphorylation (100 nM, 1 h) was “completely inhibited”. In the series on c-Met phosphorylation (10 or 50 nM, 1 h), the “phosphorylation level of c-Met” value is recorded as “suppressed in a dose-dependent manner”. In the series on c-Met phosphorylation (setting [9]), the “inhibition of c-Met phosphorylation” value is “more obvious”. For the same compound, in series [5], the concentration for half-maximal inhibition (IC50) was greater than 50 µM. Moreover, the “phosphorylation of Akt” value with Akt phosphorylation (100 nM, 1 h) is listed as “completely inhibited”. For the same compound, in the series on Akt phosphorylation (10 or 50 nM, 1 h), the “phosphorylation level of Akt” value is given as “suppressed in a dose-dependent manner”. The “inhibition of Akt phosphorylation” value in the series with Akt phosphorylation (setting [9]) is “more obvious”. Also, the inhibition of migration entry in [6] (10 nM) is reported as “moderate inhibition of migration”. In addition, in [6] (50 nM), the inhibition of migration entry is given as “significantly suppressed”. Also, in [6] (100 nM), the inhibition of migration entry was “completely suppressed”. Also, the 50% inhibitory concentration (IC50) in series [7] was found to be 42.9 ± 0.13 µM. Also, the IC50 in [8] is greater than 50 µM.
